Laboratory results published in patent US6703413B2 (Rhode Island Hospital, priority 1999, dated 2004).
Read-outs that look alike come from different tables or passages of the source.

Key:
[1] = test system: H-596 lung tumor cells; experiment: Cell growth inhibition, 3 d exposure, cell counting; assay type: cell-based, human
Procedure: (§1) One ml of this cell suspension was added to each well of a 12 well cell culture plate that contained 3 ml of appropriate media plus serum. […] Control wells received 40 μl of 5% Kollidon 17 PF alone. Seventy-two hours later, all cells were harvested by trypsinization and cell number determined electronically using a Coulter Model Z1 particle counter (Coulter Corp., Miami, Fla.) to assess cell growth inhibition. Each experiment was performed in duplicate and repeated a minimum of three times.
(§2) Cells were seeded at a density of 1-5×10^4 cells in each well of a 6 well tissue culture flask. […] After three days, cells were harvested by trypsinization and cell number determined electronically. Cell growth inhibition was determined by comparison to non-Taurolidine exposed control cultures. The IC50 was calculated as the concentration required to inhibit cell number by 50%.

[2] = test system: HCT-15 colon tumor cells; experiment: as above; assay type: cell-based, human
Procedure: as §1, §2

[3] = test system: HCT-8 colon tumor cells; experiment: as above; assay type: cell-based, human
Procedure: as §1, §2

[4] = test system: panel of human and murine tumor cell lines; experiment: Cell growth inhibition, panel summary; assay type: cell-based; settings: for IC50: 72 h; for cytotoxic concentration lower than that for antibacterial/antibiotic effect: versus concentrations used to inhibit bacterial cell growth
Procedure: (§3) Parallel studies were carried out to assess whether disruption of cell adhesion played a role in the cytotoxic activity.
as §1, §2

[5] = test system: PA-1 human ovarian tumor cells; experiment: Cell cycle distribution and sub-G0/G1 DNA debris, flow cytometry; assay type: cell-based; settings: for Cell Cycle Distribution, G0G1 / Cell Cycle Distribution, G2/M / Cell Cycle Distribution, S: PA1, 48 h
Procedure: Three×10^5 cells were seeded in plastic tissue culture flasks. […] Control cultures received an appropriate volume of Kollidine-17P. […] The percentage of DNA debris in the sub-G0/G1 region was assessed using cytofluorometric techniques. Each bar represents the mean (±SE) of three determinations. ** p≦0.01, *** p≦0.001, **** p≦0.0001
For flow cytometry studies, 1×10^6 PA-1, SKOV-3, or NIH-3T3 cells were incubated for 24 h in appropriate media containing serum. […] Control cultures for each cell line were incubated in media containing 40 μl of 5% Kollidon 17 PF alone. Forty-eight hours later, all cells were harvested by trypsinization and prepared for cytofluorometric analysis by standard methods. For example, harvested cells were resuspended in ice cold phosphate-buffered saline at a final cell density of 2×10^6 cells/ml. The cells then were stained for 30 min at room temperature in the dark with a solution of 0.05 mg/ml propidium iodide, 0.6% Igepal, and 1% sodium citrate. Flow cytometry was performed by FACScan (Becton Dickinson, Plymouth, England) using the ModFit LT program (Becton Dickinson). Statistical analysis was performed with the Kruskal Wallis non-parametric ANOVA test followed by Dunn's multiple comparisons test using Instat.
Three×10^5 cells were seeded in plastic tissue culture flasks. […] Control cultures received an appropriate volume of Kollidine-17P. After an additional 48 h, cells were harvested, stained with propidium iodide, and cell cycle distribution assessed using cytofluorometric techniques. Each value represents the percentage of cells in the noted cell cycle phases and is the mean±SEM of three determinations.

[6] = Taurolidine-induced toxicity, 3 d i.p. bolus injection regimen; assay type: in vivo; settings: for mortality (%): i.p., 3 consecutive days
Procedure: Control animals received 1 ml injections of 5% Kollidon 17 PF alone. Animals were examined daily and body weight recorded twice weekly. A reduction in body weight of greater than 10% was considered significant. The maximally tolerated dose (MTD) was considered to be the dose which produced ˜10% mortality.
During the injection regimen, and daily thereafter for 30 d, mice were weighed and examined. Experiments were repeated a minimum of three times and mortality and weight loss data pooled.

[7] = test system: SKOV-3 human ovarian tumor xenografts; experiment: Therapeutic effectiveness against i.p. human ovarian tumor xenografts; assay type: in vivo, female nude mice
Description: Fourteen days following the final Taurolidine injection, mice in all groups were sacrificed and the peritoneal cavity examined for the presence of tumors. Each experimental was repeated three times and the pooled number of animals in each group ranged from 15-21.
Fourteen days following the final Taurolidine injection, mice in all groups were sacrificed, i.p. ovarian tumor xenografts removed and tumor weighed. Each experiment was repeated three times and the pooled number of animals in each group ranged from 15-21. Each bar represents the mean (±SE) tumor weight of 15-21 animals. ***p≦0.001, **** p≦0.0001.
To evaluate therapeutic effectiveness, mice received a single intraperitoneal injection of 5×10^6 SKOV-3 cells in a volume of 0.5 ml. Immediately thereafter, mice were randomly divided into treatment groups of 7 animals. […] Control animals received 1 ml injections of 5% Kollidon 17 PF alone. Animals were examined daily and body weight recorded twice weekly. […] The mean tumor weight for each treatment group was calculated and statistical analysis of differences in the mean tumor weight between treatment groups employed the Student's t-test. p-values of ≦0.05 were considered significant.
Studies next evaluated the antineoplastic activity of this regimen in mice bearing i.p. human ovarian tumor xenografts derived from the SKOV-3 cell line. Mice were injected i.p. with 5×10^6 SKOV-3 cells. […] Fourteen days following the termination of Taurolidine therapy, mice were sacrificed and all i.p. tumors removed and weighed.

[8] = test system: human Burkitt's lymphoma cell line, Daudi cell line; experiment: Killing of non-anchorage-dependent tumor cells in suspension culture; assay type: cell-based; settings: 10-20 μM for 72 hours
Procedure: Two different non-anchorage-dependent tumor cell lines (a human Burkitt's lymphoma cell line, and a Daudi cell line), and precancerous cell line (a human myelodysplastic cell line) were grown in suspension culture.

[9] = test system: HL-60 human promyelocytic cell line; experiment: Apoptosis induction in non-adherent cancer cells; assay type: cell-based
[10] = test system: human ovarian tumor cells; experiment: Growth of established tumor cell colonies in vitro; assay type: cell-based; settings: 24-hour exposure to 50 μM
Procedure: as §3

[11] = test system: 3T3 cells; experiment: DNA fragmentation, agarose-gel electrophoresis; assay type: cell-based; settings: identical regimen, 50 μM
[12] = therapy delayed for up to 3 d after tumor cell injection
[13] = therapy initiated on the day of tumor cell injection

`O=S1(=O)CCN(CN2CCS(=O)(=O)NC2)CN1` [Taurolidine, Bis-(1,1-dioxoperhydro-1,2,4-thiadiazinyl-4)methane] gave an IC50 [1] of 34.2 µM, an IC50 ([1]; Homo sapiens, NCI-H596, 72 h) of roughly 35 µM and an IC50 [2] of 9.6 ± 3 µM. For the same molecule, the IC50 ([2]; Homo sapiens, HCT-15, 72 h) was roughly 10 µM, the IC50 [3] was 11.5 ± 0.5 µM and the IC50 ([3]; Homo sapiens, HCT-8, 72 h) was roughly 10 µM. For the same molecule, the IC50 ([4]; 3 d exposure, panel of human and murine tumor cell lines, read-out: IC50s over all cell lines evaluated) was 10 to 50 µM, the IC50 ([4]; 3-day exposure, human cancer cell lines, read-out: concentration required to inhibit tumor cell growth (IC50)) was 12.5 to 50 µM and the “cytotoxic concentration lower than that for antibacterial/antibiotic effect” value [4] was “approximately 100 fold”. For the same molecule, the “cytotoxic concentration lower than that for antibacterial/antibiotic effect” value ([4]; listed as taurolidine) was “at least 1000 fold”, the “Cell Cycle Distribution, G0G1” value ([5]; 25 μM) was 28.4 ± 0.5% and the “Cell Cycle Distribution, G2/M” value ([5]; 25 μM) was 24.7 ± 0.9%. For the same molecule, the “Cell Cycle Distribution, S” value ([5]; 25 μM) was 46.8 ± 0.6%, the “Cell Cycle Distribution, G0G1” value ([5]; 50 μM) was 23.7 ± 2.2% and the “Cell Cycle Distribution, G0G1” value ([5]; 100 μM) was 28.4 ± 5.6%. The “Cell Cycle Distribution, G2/M” value ([5]; 100 μM) was 27.2 ± 17.9%, the “Cell Cycle Distribution, S” value ([5]; 100 μM) was 44.5 ± 23.5% and the “DNA debris in the sub-G0/G1 region” value ([5]; PA-1, 48 h, 25-100 μM) was “appearance of DNA debris in the sub-G0G1 region”. The “mortality (%)” value ([6]; 10 mg/mouse/inj) was 6%, the “mortality (%)” value ([6]; 20 mg/mouse/inj) was 13% and the “mortality (%)” value ([6]; 25 mg/mouse/inj) was 47%. The “mortality (%)” value ([6]; 30 mg/mouse/inj) was 100%, the tolerability ([6]; daily doses below 15 mg/mouse (~650 mg/kg), 3 d i.p. regimen) was “well-tolerated” and the MTD ([6]; mouse, in vivo, ip) was 20 mg/inj. The “maximally tolerated dose (MTD)” value ([6]; mouse, in vivo, ip) was 20 mg/mouse, the ascites formation ([7]; 20 mg/mouse/injection x 3 d i.p. from day of tumor cell injection) was “no evidence of ascites formation” and the Mean tumor weight ([7]; 20 mg/mouse/injection x 3 d i.p. from day of tumor cell injection, nineteen days after injection) was “less than 50 mgs”. For the same molecule, the “mean tumor size versus controls” value [7, 12] was “significantly smaller than in controls”, the “mice tumor free upon sacrifice” value [7, 12] was “approximately 10%” and the tumor growth ([7]; therapy initiated 5 d after tumor cell injection (established i.p. tumors)) was “significantly inhibiting tumor growth”. The “mean tumor size in treated mice with tumors, smaller than control” value [7, 13] was “approximately 40 fold”, the “treated mice with no evidence of disease upon sacrifice” value [7, 13] was roughly 80% and the cells died [8] was 50%. The “exposure time that induces apoptosis” value [9] was 90 min, the “cytotoxic effect against growth of established tumor cells” value [10] was “significant cytotoxic effect” and the DNA fragmentation [11] was “not apparent”.
